Reference: US6372741B1, “Use of CSAID™ compounds as inhibitors of angiogenesis” (SmithKline Beecham Corporation, priority 1996, dated 2002)

What was measured:
[1] = tested on: angiogenesis in granuloma (vascular index); assay: Murine air pouch granuloma model: vascular index by carmine vascular cast; assay type: in vivo, mice; conditions: for maximum reduction in vascular index: Compound I at 50 mg.kg, bid, i.p., versus vehicle control
Excerpt: (§1) The murine airpouch granuloma model of chronic inflammation (Kimura et al., 1985, J. Pharmacobio-Dyn., 8:393-400; Colville-Nash et al.,1995, J. Pharm. and Exp. Ther., 274:1463-1472) whose disclosure is incorporated herein by reference in its entirety, is characterized by inflammatory cell influx, fibrous tissue proliferation and intense angiogenesis. […] In addition, angiogenesis can be accurately quantitated by a vascular casting method.
(§2) Murine air pouch granuloma model
(§3) Day-1, mice are anesthetized using Aerrane (isoflurane) gas (5%), after which 3mls of air is injected into the dorsal subcutaneous tissue using a 27 g needle. Mice are allowed to recover.
(§4) Day 0, mice are again anesthetized using Aerrane, once anesthetized 0.5 ml of Freunds complete adjuvant with 0.1% v/v croton oil is injected into the air pouch formed on Day-1. The animals also begin their dosing regime (number of days dependent upon study) with the animals typically receiving compound in 0.2 ml N,N, Dimethyl Acetoacetamide(DMA)(Sigma, St. Louis, Mo.)/Cremephor El (Sigma, St. Louis, Mo.)/saline (10/10/80) or other appropriate vehicle. The animals are allowed to recover and all subsequent dosing is performed on the animals in the absence of anesthetics.
(§5) Days 1-5, animals are dosed according to schedule.
[…] Louis, Mo.)/gelatin (5%)(Sigma, St. Louis, Mo.) solution. The animals are then sacrificed by lethal dose of anesthesia and chilled at 4 C for 2 hours prior to the removal of the granuloma tissue.
(§6) When the granuloma is removed it is weighed and then dried for 3 days at 45 C and reweighed. The dried tissue is then digested in 0.9 ml of a 0.05M phosphate buffer pH 7.0 containing 12 U/ml^−1 papain (Sigma, St. Louis, Mo.) and 0.33 g/L^−1 N-acetyl-1-Cysteine (Sigma, St. Louis, Mo.) at 57 C for 3 days. After 3 days digestion the carmine red is solubilized by the addition of 0.1 ml 5 mM NaOH. Samples are centrifuged and then filtered using 0.2 um acrodiscs. The carmine content is then determined against a carmine red standard curve (0.5 to 2 mg/ml) generated in extracted tissue from non carmine treated animals and read at 490 nm. Sample and standard values are determined using DeltaSoft Elisa analysis software (Biometallics Inc., Princeton, N.J.). The carmine content is then used to determine the vascular indexes for the various treatments, vascular index being the mg carmine dye/gm dry tissue.

[2] = tested on: granuloma size (dry weight); assay: Murine air pouch granuloma model: granuloma size by dry weight; assay type: in vivo, mice; conditions: for effect on granuloma size as measured by dry weight: day 6 granuloma
Excerpt: as §1, §2, §3, §4, §5
Louis, Mo.)/gelatin (5%)(Sigma, St. Louis, Mo.) solution. […]
as §6, with “The carmine content is then used to determine the vascular indexes for the various treatments, vascular index being the mg carmine dye/gm dry tissue.” left out

granuloma vasculature = assay: Microscopic evaluation of vasculature in day 6 granulomas; assay type: in vivo; conditions: treated versus untreated mice
Excerpt: Angiogenesis in the granuloma was microscopically evaluated. The vasculature of day 6 granulomas from both untreated and compound I treated mice was examined. […] In fact, there was a almost no fine capillaries visible, only a few larger vessels.

IL-1β = IL-1β levels in granuloma tissue homogenates by ELISA; assay type: in vivo, mice; conditions: 30 mg/kg orally twice a day; peak at day 7
Procedure: (§7) The levels of these cytokines over the course to granuloma development were measured to determine if the modulation of their expression by the compound correlated with angiogenesis. Cytokine levels were measured by ELISA using homogenates of granuloma tissue. TNF-α levels rose sharply, peaking at day 7 and dropping back down to moderate levels by day 14 (FIG. 2). […] Thus, the ability of the compound to block the sharp rise in TNF-α and IL-1β between days 5 and 7 correlated well with the ability of the compound to prevent the increase in vascular index that occurs over the same time points.
(§8) Tissue extracts were made by homogenizing granulomas in 0.5 ml 5 mM KH2PO4/0.1 gm wet tissue. IL-1β levels were determined using a Cytoscreen Immunoassay Kit (catalog #KMC 0012) from BioSource International, Camarillo, Calif. TNF-α levels were determined using the following assay: plates were coated with hamster anti-murine TNF-α antibody (Genzyme, Cambridge, Mass.), for 2 hours at 37° C., washed and blocked with a casein-BSA solution (5 gram/L for each) for 1 hour at 37° C., the samples were added and incubated at 4° C. overnight. […] The reaction was terminated with 25 ul 0.1M NaF per well, the O.D. read at 460 nm. Sample values for both ELISAs are calculated using DeltaSoft ELISA analysis software (Biomettalics Inc., Princeton, N.J.).

TNF-α = TNF-α levels in granuloma tissue homogenates by ELISA; assay type: in vivo, mice; conditions: 30 mg/kg orally twice a day; day 7
Procedure: as §7, §8

“medroxyprogesterone [reference compound]” was tested. Which “maximum reduction in vascular index” value ([1]; day 6 granuloma) did it give?
Its value is 50%.

What about the “effect on granuloma size as measured by dry weight” value [2] of the same molecule?
Its value is “Neither Compound I nor medroxyprogesterone had an effect”.

Which results are given for `Nc1nccc(-c2c(-c3ccc(F)cc3)ncn2C2CCNCC2)n1` [Compound I, 1-Piperidine-4-(4-fluorophenyl)-5-(2-aminopyrimidin-4-yl)imidazole]?
vasculature of granuloma, microscopic evaluation (granuloma vasculature): striking reduction in the vasculature; IL-1β expression in granuloma (IL-1β): effectively blocked the increased IL-1β expression; vascular index (VI) compared to control at day 3 ([1]; 30 mg/kg orally twice a day from day 0, day 3): did not cause a significant reduction in VI; vascular index (VI) compared to control at days 5, 7 and 14 ([1]; 30 mg/kg orally twice a day from day 0, days 5, 7 and 14): lowered significantly; decrease in the vascular index (in words) ([1]; day 6 granuloma, dosing from induction): significant and dose dependent decrease; maximum reduction in vascular index ([1]; day 6 granuloma): 44%; granuloma size over time course ([2]; 30 mg/kg orally twice a day from day 0, days 3, 5, 7 and 14): unaffected by the compound; effect on granuloma size as measured by dry weight [2]: Neither Compound I nor medroxyprogesterone had an effect; TNF-α levels in granuloma (TNF-α): greatly reduced TNF-α levels
